From US20200291018A1, “TAM KINASE INHIBITORS” (SYROS PHARMACEUTICALS, INC., priority 2017, published 2020) come the findings set out here.

The target of assay [1] is T1, AXL (Homo sapiens, UniProt P30530).
T1 sequence (P30530 26-894): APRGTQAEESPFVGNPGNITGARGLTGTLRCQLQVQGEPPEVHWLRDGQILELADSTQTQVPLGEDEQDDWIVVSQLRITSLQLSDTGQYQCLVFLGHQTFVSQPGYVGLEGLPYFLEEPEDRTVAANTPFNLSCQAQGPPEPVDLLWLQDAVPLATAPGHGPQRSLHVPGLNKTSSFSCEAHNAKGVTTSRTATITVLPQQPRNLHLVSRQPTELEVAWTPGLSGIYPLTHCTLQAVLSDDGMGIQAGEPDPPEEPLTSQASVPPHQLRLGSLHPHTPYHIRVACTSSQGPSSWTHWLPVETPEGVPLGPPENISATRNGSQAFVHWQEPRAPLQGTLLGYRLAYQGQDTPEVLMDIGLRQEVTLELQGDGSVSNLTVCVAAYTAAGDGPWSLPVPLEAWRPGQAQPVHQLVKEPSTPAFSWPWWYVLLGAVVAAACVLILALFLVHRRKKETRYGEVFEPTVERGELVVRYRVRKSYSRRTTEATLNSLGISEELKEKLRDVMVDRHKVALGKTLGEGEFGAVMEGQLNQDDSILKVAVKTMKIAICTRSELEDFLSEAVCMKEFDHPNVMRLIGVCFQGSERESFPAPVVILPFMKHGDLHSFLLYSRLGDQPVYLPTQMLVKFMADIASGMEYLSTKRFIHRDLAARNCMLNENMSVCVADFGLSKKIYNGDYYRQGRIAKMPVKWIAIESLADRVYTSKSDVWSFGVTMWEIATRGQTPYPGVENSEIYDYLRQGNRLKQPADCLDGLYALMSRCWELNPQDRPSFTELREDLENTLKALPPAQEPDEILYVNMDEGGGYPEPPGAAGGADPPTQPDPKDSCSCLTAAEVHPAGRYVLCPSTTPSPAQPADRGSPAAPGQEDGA
Description: TR-FRET kinase activity assay, AXL. The format is biochemical. The settings on record: ATP at Km, 60 minutes. The procedure, abridged: (§1)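 TR-FRET signal from Eu-labeled phospho-site antibody bound to tyrosine-phosphorylated fluorescent peptide; inhibition lowers signal, giving IC50. Reactions: 50 mM HEPES pH 7.5, 10 mM MgCl2, 1 mM EGTA, 0.01% Brij 35, 1 mM DTT, ATP at Km per enzyme, 60 min, RT.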

In assay [2] the target is T2, TYRO3 (Homo sapiens, UniProt Q06418).
T2 sequence (Q06418 41-890): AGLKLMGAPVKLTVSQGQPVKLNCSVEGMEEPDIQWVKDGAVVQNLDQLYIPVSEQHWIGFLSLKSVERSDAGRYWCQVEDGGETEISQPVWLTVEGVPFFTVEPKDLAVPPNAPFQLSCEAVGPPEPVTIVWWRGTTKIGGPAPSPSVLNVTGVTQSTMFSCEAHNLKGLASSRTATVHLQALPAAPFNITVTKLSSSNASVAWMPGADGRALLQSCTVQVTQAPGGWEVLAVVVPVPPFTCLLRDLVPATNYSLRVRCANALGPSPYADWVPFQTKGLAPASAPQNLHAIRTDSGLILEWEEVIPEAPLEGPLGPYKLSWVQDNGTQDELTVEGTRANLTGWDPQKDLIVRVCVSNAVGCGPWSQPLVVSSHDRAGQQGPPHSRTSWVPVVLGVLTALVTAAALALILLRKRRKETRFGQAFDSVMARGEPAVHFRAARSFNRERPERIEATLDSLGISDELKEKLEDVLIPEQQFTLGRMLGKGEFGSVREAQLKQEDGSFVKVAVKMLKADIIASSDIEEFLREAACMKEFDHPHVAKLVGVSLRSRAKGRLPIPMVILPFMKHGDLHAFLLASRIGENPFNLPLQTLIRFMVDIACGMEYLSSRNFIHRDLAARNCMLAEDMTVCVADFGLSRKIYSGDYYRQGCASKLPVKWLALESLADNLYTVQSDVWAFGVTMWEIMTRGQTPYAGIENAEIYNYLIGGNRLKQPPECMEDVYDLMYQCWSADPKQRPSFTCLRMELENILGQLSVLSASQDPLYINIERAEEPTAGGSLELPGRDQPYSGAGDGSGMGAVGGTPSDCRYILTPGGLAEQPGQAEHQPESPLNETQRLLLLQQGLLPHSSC
The assay is described as follows: TR-FRET kinase activity assay, TYRO3. The settings on record: ATP at Km, 60 minutes. The class given is biochemical. The procedure, abridged: as §1
(In TR-FRET formats the signal depends on donor and acceptor labels being close together.)

One may read the IC50 as the concentration that gives 50% inhibition. Lower therefore signals greater potency. Consider `CCCC(C)Nc1ncc2c(N3CC[C@H](N(C)C)C3)ncc([C@H]3CC[C@H](O)CC3)c2n1` (stereo partly shown) [Compound 159], for which the 50% inhibitory concentration (IC50) in assay [1] was 1 to 10 µM; in assay [2], at most 0.1 µM.
Consider `CCCC(C)Nc1ncc2c(OC[C@H]3CC[C@H](O)CC3)ncc([C@H]3CC[C@H](O)CC3)c2n1` (stereo partly shown) [Compound 160], for which the half-maximal inhibitory concentration (IC50) was 0.1 to 1 µM in assay [1] and at most 0.1 µM in assay [2].
For `CCCC(C)Nc1ncc2c(OC3CC(C)(C)N(C)C(C)(C)C3)ncc([C@H]3CC[C@H](O)CC3)c2n1` (stereo partly shown) [Compound 161] the same measures were at most 0.1 µM and at most 0.1 µM.
Consider `CN1CCC(Nc2ncc3c(OC4CCNCC4)ncc([C@H]4CC[C@H](O)CC4)c3n2)C1=O` (stereo partly shown) [Compound 162], for which the IC50 in assay [1] and in assay [2] was 1 to 10 µM in each case.
Take `Cc1nccn1CCNc1ncc2c(OC3CCNCC3)ncc([C@H]3CC[C@H](O)CC3)c2n1` [Compound 163]: the IC50 in assay [1] is 1 to 10 µM; in assay [2], at most 0.1 µM.
For `O[C@H]1CC[C@H](c2cnc(OC3CCNCC3)c3cnc(NC4CCC(F)(F)CC4)nc32)CC1` [Compound 164], the IC50 in assay [1] lay within 1 to 10 µM; in assay [2], 0.1 to 1 µM.
As to `CCCC(C)Nc1ncc2c(NC3CCN(C(=O)C(F)(F)F)CC3)ncc([C@H]3CC[C@H](O)CC3)c2n1` (stereo partly shown) [Compound 165], the half-inhibitory concentration (IC50) in assay [1] is 0.1 to 1 µM; in assay [2], at most 0.1 µM.
The like results for `CCCC(C)Nc1ncc2c(OC3CCNCC3)ncc([C@H]3CC[C@H](O)CC3)c2n1` (stereo partly shown) [Compound 166] were, in that order, 0.1 to 1 µM and at most 0.1 µM.
For `CC1CC(Nc2ncc3c(OC4CCNCC4)ncc([C@H]4CC[C@H](O)CC4)c3n2)C1` (stereo partly shown) [Compound 167] the same measures were at most 0.1 µM and at most 0.1 µM.
For `CC1CC(Nc2ncc3c(OC4CCNCC4)ncc([C@H]4CC[C@@H](O)CC4)c3n2)C1` (stereo partly shown) [Compound 168] the same measures were 0.1 to 1 µM and at most 0.1 µM.
Turning to `CCCC(C)Nc1ncc2c(=O)n(CCN(C)C)cc([C@H]3CC[C@H](O)CC3)c2n1` (stereo partly shown) [Compound 169], the values for the IC50 in assay [1] and in assay [2] were 1 to 10 µM and at most 0.1 µM, respectively.
As to `CCCC(C)Nc1ncc2c(OC3CCN(CCC(=O)N(C)C)CC3)ncc([C@H]3CC[C@H](O)CC3)c2n1` (stereo partly shown) [Compound 170], the IC50 in assay [1] was 0.1 to 1 µM; in assay [2], at most 0.1 µM.
On to `CCC[C@H](C)Nc1ncc2c(OC3CCNCC3)ncc([C@H]3CC[C@H](O)CC3)c2n1` [Compound 171], for which the IC50 in assay [1] and in assay [2] was at most 0.1 µM throughout.
Consider `CCCC(C)Nc1ncc2c(OC3CCN(CC(=O)N(C)C)CC3)ncc([C@H]3CC[C@H](O)CC3)c2n1` (stereo partly shown) [Compound 172], for which the concentration for half-maximal inhibition (IC50) in assay [1] is 0.1 to 1 µM; in assay [2] it was at most 0.1 µM.
For `CCCC(C)Nc1ncc2c(OC3CCN(CCOC)CC3)ncc([C@H]3CC[C@H](O)CC3)c2n1` (stereo partly shown) [Compound 173] the same measures were 0.1 to 1 µM and at most 0.1 µM.
The like results for `CCCC(C)Nc1ncc2c(O[C@@H]3C[C@H]4CC[C@@H](C3)O4)ncc([C@H]3CC[C@H](O)CC3)c2n1` (stereo partly shown) [Compound 174] were, in that order, 0.1 to 1 µM and 0.1 to 1 µM.
On to `CCCC(C)Nc1ncc2c(O[C@H]3C[C@H]4CC[C@@H](C3)O4)ncc([C@H]3CC[C@H](O)CC3)c2n1` (stereo partly shown) [Compound 175], for which the half-maximal inhibitory concentration (IC50) in assay [1] and in assay [2] was 0.1 to 1 µM in each case.
On to `CCCC(C)Nc1ncc2c(O[C@H]3C[C@@H](O)C3)ncc([C@H]3CC[C@H](O)CC3)c2n1` (stereo partly shown) [Compound 176], for which the IC50 was 0.1 to 1 µM in assay [1] and at most 0.1 µM in assay [2].
The like results for `CCCC(C)Nc1ncc2c(=O)n(CCN3CCOCC3)cc([C@H]3CC[C@H](O)CC3)c2n1` (stereo partly shown) [Compound 177] were, in that order, 1 to 10 µM and at most 0.1 µM.
The like results for `CC(C)C(C)Nc1ncc2c(OC3CCNCC3)ncc([C@H]3CC[C@H](O)CC3)c2n1` (stereo partly shown) [Compound 178] were, in that order, 0.1 to 1 µM and at most 0.1 µM.
For `CCCC(C)Nc1ncc2c(N(C)C3CCNCC3)ncc([C@H]3CC[C@H](O)CC3)c2n1` (stereo partly shown) [Compound 179] the same measures were 0.1 to 1 µM and at most 0.1 µM.
`CCCC(C)Nc1ncc2c(N3CCC[C@H](N(C)C)C3)ncc([C@H]3CC[C@H](O)CC3)c2n1` (stereo partly shown) [Compound 180]: the 50% inhibitory concentration (IC50) in assay [1] was 1 to 10 µM; in assay [2], at most 0.1 µM.
The like results for `CCCC(C)Nc1ncc2c(N3CC(N(C)C)C3)ncc([C@H]3CC[C@H](O)CC3)c2n1` (stereo partly shown) [Compound 181] were, in that order, 1 to 10 µM and over 10 µM.
For `CCCC(C)Nc1ncc2c(OCCN3CCOCC3)ncc([C@H]3CC[C@H](O)CC3)c2n1` (stereo partly shown) [Compound 182] the same measures were 1 to 10 µM and 0.1 to 1 µM.
As to `O[C@H]1CC[C@H](c2cnc(OC3CCNCC3)c3cnc(NC4CCCCC4)nc32)CC1` [Compound 183], the IC50 was 0.1 to 1 µM in assay [1] and over 10 µM in assay [2].
The like results for `CCCC(C)Nc1ncc2c(OC3CCOCC3)ncc([C@H]3CC[C@@H](N(C)C)CC3)c2n1` (stereo partly shown) [Compound 184] were, in that order, 1 to 10 µM and over 10 µM.
The like results for `CCCC(C)Nc1ncc2c(OC3CCOCC3)ncc([C@H]3CC[C@H](N(C)C)CC3)c2n1` (stereo partly shown) [Compound 185] were, in that order, 0.1 to 1 µM and over 10 µM.
In the case of `CCCC(C)Nc1ncc2c(=O)n(C3CCN(C(C)C)CC3)cc([C@H]3CC[C@H](O)CC3)c2n1` (stereo partly shown) [Compound 186], the half-maximal inhibitory concentration (IC50) in assay [1] was 0.1 to 1 µM; in assay [2], over 10 µM.
Turning to `CCCC(C)Nc1ncc2c(O[C@H]3C[C@H](O)C3)ncc([C@H]3CC[C@H](O)CC3)c2n1` (stereo partly shown) [Compound 187], the IC50 in assay [1] is 0.1 to 1 µM; in assay [2], at most 0.1 µM.
For `CCCC(C)Nc1ncc2c(N3CCC[C@@H](N(C)C)C3)ncc([C@H]3CC[C@H](O)CC3)c2n1` (stereo partly shown) [Compound 188] the same measures were 1 to 10 µM and over 10 µM.
The like results for `C[C@H](Nc1ncc2c(OC3CCNCC3)ncc([C@H]3CC[C@H](O)CC3)c2n1)c1ccccc1` [Compound 189] were, in that order, 1 to 10 µM and over 10 µM.
In the case of `CCC[C@H](C)Nc1ncc2c(OC3CCN(C)CC3)ncc([C@H]3CC[C@H](O)CC3)c2n1` [Compound 190], the half-maximal inhibitory concentration (IC50) in assay [1] and in assay [2] was 0.1 to 1 µM in each case.
Regarding `CCCC(C)Nc1ncc2c(OCCN(C)C)ncc([C@H]3CC[C@H](O)CC3)c2n1` (stereo partly shown) [Compound 191], the IC50 is 1 to 10 µM in assay [1] and over 10 µM in assay [2].
For `CCCC(C)Nc1ncc2c(=O)n(C3CCN(C(=O)CN(C)C)CC3)cc([C@H]3CC[C@H](O)CC3)c2n1` (stereo partly shown) [Compound 192] the same measures were 1 to 10 µM and over 10 µM.
In the case of `CCCC(C)Nc1ncc2c(=O)n(CC3CCN(C)CC3)cc([C@H]3CC[C@H](O)CC3)c2n1` (stereo partly shown) [Compound 193], the half-maximal inhibitory concentration (IC50) was 0.1 to 1 µM in assay [1] and over 10 µM in assay [2].
The like results for `C[C@@H](CC(F)(F)F)Nc1ncc2c(O[C@H]3C[C@](C)(O)C3)ncc([C@H]3CC[C@H](O)CC3)c2n1` [Compound 430] were, in that order, 0.1 to 1 µM and at most 0.1 µM.
Regarding `COC[C@H](C)Nc1ncc2c(O[C@H]3C[C@@H](O)C3(C)C)ncc([C@H]3CC[C@H](O)CC3)c2n1` [Compound 431], the IC50 in assay [1] is 1 to 10 µM; in assay [2] it was at most 0.1 µM.
The like results for `COCCN1[C@@H]2CC[C@H]1C[C@H](Oc1ncc([C@H]3CC[C@H](O)CC3)c3nc(N[C@@H](C)CC(F)(F)F)ncc13)C2` [Compound 432] were, in that order, at most 0.1 µM and at most 0.1 µM.
